The target of data set [1] is T1, MAP kinase p38 (Homo sapiens, UniProt O15264+Q15759+Q16539+P53778). Description: Inhibition of p38 MAP kinase. It counts as protein assay.
For data set [2], the target named is T1, MAP kinase p38. In words: Inhibition of p38 kinase related TNF-alpha release. The data set is classed as functional.
A short description of data set [3]: Plasma clearance measured in rat. The data set is classed as ADME, organism-based. Particulars: read-out: Clp.
A short description of data set [4]: Oral bioavailability in rat. It counts as ADME, organism-based. As to conditions: in vivo.

By IC50 is commonly meant the concentration that inhibits the measured activity by half. Lower therefore signals higher potency. In the case of `CC(C)N1CCC(Nc2cc(-c3ccccc3Cl)c3c(c2)N(c2c(Cl)cccc2Cl)C(=O)NC3)CC1`, the IC50 turned out to be 1.6 nM in data set [1] and 31 nM in data set [2].

With `O=c1ccc2c(-c3ccccc3Cl)nc(NC3CCNCC3)cc2n1-c1c(Cl)cccc1Cl`, the half-maximal inhibitory concentration (IC50) in data set [1] was 0.2 nM; in data set [2], 18 nM.

For `CN1C(C)(C)CC(Nc2cc3c(ccc(=O)n3-c3c(Cl)cccc3Cl)c(-c3ccccc3Cl)n2)CC1(C)C`, the IC50 in data set [1] turned out to be 1.1 nM; in data set [2] it was 13 nM.

What is called bioavailability is dose-corrected exposure relative to a reference, in per cent. Low values mean poor availability, high ones good availability. In the case of `CC(C)N1CCC(c2cc(-c3ccccc3Cl)c3ccc(=O)n(-c4c(Cl)cccc4Cl)c3c2)CC1`, the clearance in data set [3] was found to be 39 mL/min/kg. Further, the IC50 is listed as 0.2 nM in data set [1] and 5.5 nM in data set [2]. The bioavailability in data set [4] was found to be 17%.

In the case of `CN1C2CCC1CC(Nc1cc(-c3ccccc3Cl)c3c(c1)N(c1c(Cl)cccc1Cl)C(=O)NC3)C2` (configuration not stated), the results for the concentration for half-maximal inhibition (IC50) in data set [1] and in data set [2] were 0.4 nM and 20 nM, respectively.

Consider `CC(C)N1CCC(c2cc(-c3ccc(F)cc3Cl)c3c(c2)N(c2c(Cl)cccc2Cl)C(=O)CC3)CC1`, for which the clearance in data set [3] worked out at 70 mL/min/kg. For the same compound, the IC50 in data set [1] came to 0.8 nM; in data set [2], 24 nM. In data set [4], this compound yielded a bioavailability of 10%.

For the compound `CC1(C)CC(Nc2cc(-c3ccccc3Cl)c3c(c2)N(c2c(Cl)cccc2Cl)C(=O)NC3)CC(C)(C)N1`, the figures for the half-maximal inhibitory concentration (IC50) in data set [1] and in data set [2] were 3.7 nM and 200 nM, respectively.

For the compound `CN1C2CCC1CC(Nc1cc3c(ccc(=O)n3-c3c(Cl)cccc3Cl)c(-c3ccccc3Cl)n1)C2` (configuration not stated), the clearance in data set [3] turned out to be 38 mL/min/kg. In addition, the values for the IC50 in data set [1] and in data set [2] were 0.4 nM and 24 nM, respectively. Besides, the bioavailability in data set [4] came to 8.5%.

On to `CC(C)N1CCC(Nc2cc3c(ccc(=O)n3-c3c(Cl)cccc3Cl)c(-c3ccccc3Cl)n2)CC1`, for which the IC50 came out at 1.1 nM in data set [1] and 51 nM in data set [2].

As to `CC(C)N1CCC(c2cc3c(ccc(=O)n3-c3c(Cl)cccc3Cl)c(-c3ccccc3Cl)n2)CC1`, the clearance in data set [3] came out at 51 mL/min/kg. The IC50 in data set [1] is recorded as 1.3 nM; in data set [2], 4.9 nM. Moreover, the bioavailability in data set [4] amounted to 32%.

As for `CC1(C)CC(Nc2cc3c(ccc(=O)n3-c3c(Cl)cccc3Cl)c(-c3ccccc3Cl)n2)CC(C)(C)N1`, the clearance in data set [3] was 9.4 mL/min/kg. Also, the half-inhibitory concentration (IC50) in data set [1] was 0.8 nM; in data set [2], 10 nM. The compound further displayed a bioavailability in data set [4] of 5.9%.

(Values after ChEMBL document CHEMBL1136554, “p38 Inhibitors: piperidine- and 4-aminopiperidine-substituted naphthyridinones, quinolinones, and dihydroquinazolinones” (Bioorg Med Chem Lett, 2003).)
